Key:
recombinant IDO1 = recombinant IDO1 (Homo sapiens, UniProt P14902); test: IDO1 enzymatic assay (UV absorption, N-formylkynurenine formation); type: biochemical; conditions: for IC50: 40 nM IDO1, 900 μM tryptophan, 180 min, room temperature, read-out: Enzyme IDO IC50; for Enzyme IDO IC50 ratio compared to Cmpd 2: IC50 of compound divided by IC50 of reference compound 2
Method: (§1) The assay was performed by UV absorption using either recombinant IDO1 or TDO2 and L-Tryptophan as substrate. The UV absorption signal at 321 nm was correlated with the amount of N-formylkynurenine reaction product of IDO1 and TDO2.
(§2) The compounds of the present application were diluted in 10% DMSO and 5 μl of the dilution was added to a 100 μl reaction so that the final concentration of DMSO is 0.5% in all reactions.
IDO1 Assay: All of the reactions were conducted at room temperature. The 100 μl reaction mixture in IDO Assay Buffer contains 40 nM IDO1, the indicated amount of the compound, 900 μM tryptophan, and the coupled reaction components. The reaction mixture was incubated for 180 min prior to reading of the UV absorption signal. For the negative control (blank), 5 μl of the assay buffer was added instead of the IDO1.
(§3) Absorption signals were measured using a Tecan Infinite M1000 plate reader.
(§4) Data analysis: Binding experiments were performed in duplicate at each concentration. The data were analyzed using the computer software, Graphpad Prism. In the absence of the compound, the absorption signal (At) in each data set was defined as 100% activity. In the absence of the IDO1, the absorption signal (Ab) in each data set was defined as 0% activity. The percent activity in the presence of each compound was calculated according to the following equation: % activity=[(A−Ab)/(At−Ab)]×100, where A=the absorption signal in the presence of the compound. The percent inhibition was calculated according to the following equation: % inhibition=100−% activity. The values of % activity versus a series of compound concentrations were then plotted using non-linear regression analysis of Sigmoidal dose-response curve generated with the equation Y=B+(T−B)/1+10^((LogIC50−X)×Hill Slope), where Y=percent activity, B=minimum percent activity, T=maximum percent activity, X=logarithm of compound and Hill Slope=slope factor or Hill coefficient. The IC50 value was determined by the concentration causing a half-maximal percent activity.

recombinant TDO2 = recombinant TDO2 (Homo sapiens, UniProt P48775); test: TDO2 enzymatic assay (UV absorption, N-formylkynurenine formation); type: biochemical; conditions: for IC50: 50 nM TDO2, 200 μM tryptophan, 60 min, room temperature, read-out: Enzyme TDO IC50; for Enzyme TDO IC50 ratio compared to Ref. Cmpd 1: IC50 of compound divided by IC50 of Ref. Cmpd 1
Sequence of recombinant TDO2 (P48775 whole entry, species assumed): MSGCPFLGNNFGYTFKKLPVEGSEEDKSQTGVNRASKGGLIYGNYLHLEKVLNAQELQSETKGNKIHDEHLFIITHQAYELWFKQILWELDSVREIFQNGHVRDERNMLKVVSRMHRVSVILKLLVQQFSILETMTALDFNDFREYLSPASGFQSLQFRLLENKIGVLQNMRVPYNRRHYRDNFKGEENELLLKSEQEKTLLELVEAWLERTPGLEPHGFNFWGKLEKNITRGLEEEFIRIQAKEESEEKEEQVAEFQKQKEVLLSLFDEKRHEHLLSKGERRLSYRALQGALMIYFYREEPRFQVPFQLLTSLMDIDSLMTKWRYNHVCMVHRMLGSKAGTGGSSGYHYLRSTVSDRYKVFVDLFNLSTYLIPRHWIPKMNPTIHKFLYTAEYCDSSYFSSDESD
Method: as §1, §2
TDO2 Assay: All of the reactions were conducted at room temperature. The 100 μl reaction mixture in TDO2 Assay Buffer contains 50 nM TDO2, the indicated amount of the compound, 200 μM tryptophan, and the coupled reaction components. The reaction mixture was incubated for 60 min prior to reading of the UV absorption signal. For the negative control (blank), 5 μl of the assay buffer was added instead of the TDO2.
as §3
as §4, with “The percent inhibition was calculated according to the following equation: % inhibition=100−% activity.” left out

Sequence of recombinant IDO1 (P14902 whole entry, species assumed): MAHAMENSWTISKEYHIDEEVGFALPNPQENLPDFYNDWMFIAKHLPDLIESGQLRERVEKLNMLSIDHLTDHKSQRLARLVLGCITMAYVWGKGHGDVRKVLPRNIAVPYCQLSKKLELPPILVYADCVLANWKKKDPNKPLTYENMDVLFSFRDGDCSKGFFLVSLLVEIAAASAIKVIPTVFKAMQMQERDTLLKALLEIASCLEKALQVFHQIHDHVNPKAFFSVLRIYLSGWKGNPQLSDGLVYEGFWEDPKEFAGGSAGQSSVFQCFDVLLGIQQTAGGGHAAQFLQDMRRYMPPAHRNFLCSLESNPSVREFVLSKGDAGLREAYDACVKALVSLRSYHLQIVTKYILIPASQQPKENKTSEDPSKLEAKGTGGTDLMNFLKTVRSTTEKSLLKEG

| SMILES | IC50 (recombinant IDO1) [µM] | IC50 (recombinant TDO2) [µM] | Enzyme IDO IC50 ratio compared to Cmpd 2 (recombinant IDO1) | Enzyme TDO IC50 ratio compared to Ref. Cmpd 1 (recombinant TDO2) |
| --- | --- | --- | --- | --- |
| OC1c2ccccc2C(CC(O)C2CCCCC2)n2cncc21 (centres unmarked) [Cmpd 298] | > 30 | > 30 | – | – |
| CC1c2ccccc2-c2cncn2C1C(O)C1CCCCC1 (centres unmarked) [Cmpd 294] | > 30 | > 30 | – | – |
| OC1CCC(C(O)CC2(C(F)(F)F)c3c(F)cccc3-c3cncn32)CC1 (centres unmarked) [Cmpd 293] | > 100 | > 100 | – | – |
| OC1CCC(C(O)CC2(C(F)(F)F)c3c(F)cccc3-c3cncn32)CC1 (centres unmarked) [Cmpd 292] | > 100 | > 100 | – | – |
| OC(C1CCCCC1)C1CC1c1c(F)cccc1-c1c[nH]cn1 (centres unmarked) [Cmpd 304] | 12.5 | 3.1 | 142.05 | 3.87 |
| CC1c2ccccc2-c2cncn2C1C(O)C1CCCCC1 (centres unmarked) [Cmpd 295] | 14.5 | 8.4 | 216.42 | 8.40 |
| O[C@@H](C[C@H]1Cn2cncc2-c2ccccc21)C1CCCCC1 (racemic) [Cmpd 305] | 0.328 | 0.166 | 8.00 | 0.78 |
| OC(CC1(C(F)(F)F)c2ccccc2-c2cncn21)C1CCCCC1 (single isomer, unassigned) [Cmpd 290] | > 100 | – | – | 18.75 |
| OC(CC1(C(F)(F)F)c2ccccc2-c2cncn21)C1CCCCC1 (centres unmarked) [Cmpd 291] | > 100 | 26 | – | 16.25 |
| OC(CCc1c(F)cccc1-c1c[nH]cn1)C1CCCCC1 (centres unmarked) [Cmpd 302] | 19.9 | 15.5 | 226.14 | 19.33 |
| OC(CC1c2ccccc2Cc2cncn21)C1CCCCC1 (centres unmarked) [Cmpd 297] | 14 | 2.2 | 129.63 | 6.90 |
| O[C@@H](C[C@@H]1Cn2cncc2-c2ccccc21)C1CCCCC1 (racemic) [Cmpd 306] | 1.2 | 0.286 | 29.27 | 1.35 |
| OC(/C=C/c1c(F)cccc1-c1c[nH]cn1)C1CCCCC1 (centres unmarked) [Cmpd 303] | > 30 | 9.2 | – | 11.47 |
| CC1(CC(O)C2CCCCC2)c2ccccc2-c2cncn21 (centres unmarked) [Cmpd 296] | 13.1 | 2.3 | 195.52 | 2.30 |

Further lines, results first:

| IC50 (recombinant IDO1) [µM] | IC50 (recombinant TDO2) [µM] | Enzyme IDO IC50 ratio compared to Cmpd 2 (recombinant IDO1) | Enzyme TDO IC50 ratio compared to Ref. Cmpd 1 (recombinant TDO2) | SMILES |
| --- | --- | --- | --- | --- |
| 0.049 | 0.078 | 1.32 | 0.23 | FC(CC1Cc2ccccc2-c2cncn21)C1CCCCC1 (centres unmarked) [Cmpd 312] |
| 0.299 | 0.052 | 7.29 | 0.25 | FC(CC1Cn2cncc2-c2ccccc21)C1CCCCC1 (centres unmarked) [Cmpd 307] |
| 0.149 | 0.165 | 3.47 | 0.43 | OC(CC1Cc2ccccc2-c2cncn21)C1CCCCC1 (centres unmarked) [Cmpd 278] |
| 0.31 | 0.111 | 8.38 | 0.33 | FC(CC1Cc2ccccc2-c2cncn21)C1CCCCC1 (centres unmarked) [Cmpd 311] |
| 1.2 | 1.9 | 32.43 | 5.67 | OC1CCC(C(F)CC2Cc3ccccc3-c3cncn32)CC1 (centres unmarked) [Cmpd 310] |
| 0.133 | 0.096 | 1.51 | 0.12 | FC(CC1Cc2ccccc2-c2cncn21)C1CCCCC1 (centres unmarked) [Cmpd 301] |
| 7.1 | 2.36 | 165.12 | 6.21 | OC(CC1CCc2ccccc2-c2cncn21)C1CCCCC1 (centres unmarked) [Cmpd 279] |
| 5.5 | 7.6 | 105.77 | 33.33 | OC(CC1C(O)c2ccccc2-c2cncn21)C1CCCCC1 (centres unmarked) [Cmpd 309] |
| 23 | 14.2 | 442.31 | 62.28 | OC(CC1C(O)c2ccccc2-c2cncn21)C1CCCCC1 (centres unmarked) [Cmpd 308] |

— patent US10308647B2, “Fused imidazole derivatives as IDO/TDO inhibitors” (SciFluor Life Sciences, Inc., priority 2015, dated 2019)
